Drawing on a melting point compilation (Tetko et al.; mined from patent text by program, amines drawn as free bases though some values may be those of a salt), this text covers melting point for 89 molecules.

Bounds are passed on as bounds.

In turn, `O=C(c1ccccc1)C(OCc1ccc(Cl)cc1Cl)n1ccnc1` (centres undefined) returned a melting point of 109 to 111 °C.
`CCc1c(O)c(C(C)=O)cc2c1OC(C)(C)CC2C` (centres undefined) gave a melting point of 104 to 106 °C.
`O=c1cc(O)cc(-c2cccc(Cl)c2)o1` gave a melting point of 254 to 256 °C.
With `CCOC(=O)c1c[nH]c2nc(N3CCN(C)CC3)ncc2c1=O`, the melting point lay within 266 to 268 °C.
Consider `CCCCCCCCCCCCCCCCN1CCN(c2ccc(CCC(=O)O)cc2)CC1`, for which the melting point was in the range of 218 to 220 °C.
For `O=C(Cc1ccccc1Cl)Nc1ccc(C(=O)N2CCCCc3sccc32)cc1`, the melting point was in the range of 178 to 180 °C.
For `O=C(OCC1OC(n2ccc(-n3cncn3)nc2=O)C(OC(=O)c2ccccc2)C1OC(=O)c1ccccc1)c1ccccc1` (centres undefined), the melting point lay within 83 to 84 °C.
For `Cn1c2ccc(Cl)cc2c(=O)n2nc(C#N)cc12`, the melting point turned out to be 350 °C.
`CC(=O)COc1ccc(O)cc1` displayed a melting point of 110 to 112 °C.
On to `CC(C)c1nccn1Cc1ccc2c(c1)Cc1c(-c3ccsc3)n[nH]c1-2`, for which the melting point lay in the range of 260 to 262 °C.
On to `O=C1CCC(CO)N1OCc1ccccc1` (centres undefined), for which the melting point lay in the range of 121 to 123 °C.
Next, `CC1CC(=O)N(c2ccncc2)C1=O` (centres undefined): 119 to 120 °C; `CNc1cc(C)nc2c(S(=O)(=O)c3ccc(C)cc3)c(SC)nn12`: over 230 °C.
The molecule `O=C(O)Cc1coc2cc(OCc3ccc(OCc4ccc(C(F)(F)F)cc4)cc3)ccc12` showed a melting point of 161 to 163 °C.
`N#Cc1cccc2c1OCCN2`: the melting point fell in the range of 79 to 80 °C.
For the molecule `O=C(O)C(=O)Nc1cccc(-c2nnn[nH]2)c1`, the melting point worked out at 240 °C.
As for `CCOC(=O)n1nc(N(C)C)c2c(Cl)cccc21`, the melting point lay within 60 to 62 °C.
As for `Cc1cc(C)nc(SCC(CS(=O)(=O)c2ccc(-c3ccc(Cl)cc3)cc2)C(=O)O)n1` (centres undefined), the melting point fell in the range of 170 to 172 °C.
In turn, `CNC(=O)N(O)C(C)C#Cc1ccc(C)cc1` (centres undefined) registered a melting point of 137 to 138 °C.
Consider `CCOCC1COc2cc3c(O)c(C(=O)OCC)cnc3cc2O1` (centres undefined), for which the melting point is 266 to 268 °C.
Next, `O=C(O)CCc1cc(C(=O)c2cccc(C(=O)O)c2)ccc1O`: 197 to 200 °C; `Cc1cc(O)c(C23CC4CC(CC(C4)C2)C3)cc1Br`: 155 to 156 °C; `NC(=S)c1ncn2c1[C@@H]1CCN1C(=O)c1c(Cl)cccc1-2`: 250 to 253 °C.
To `COc1ccc(CNC(=O)c2cn3c(=O)n(Cc4ccc(Cl)c(Cl)c4)c(=O)cc3s2)cc1` belongs 206 to 207 °C; to `CC(C)c1ccc(C2(NC(=O)c3ccccc3)C(=O)c3ccccc3C2=O)c(OC(=O)c2ccccc2)c1`, 138 to 140 °C; to `O=C(CCCCCBr)Nc1cc(Cl)c(O)c(Cl)c1`, 113 to 114 °C.
Next, `Cn1ncc2[nH]c3ccc(Cc4cccc(O)c4)cc3c(=O)c21`: over 270 °C; `Nc1ccc(C=C2SC(=O)NC2=O)cc1`: 265 to 270 °C; `COC(=O)C1=C(C)NC(C)=C(C(=O)OCCC#N)C1c1cccc2c(=O)c(C)c(-c3ccccc3)oc12` (centres undefined): 190 to 192 °C.
`CNC(=O)N1CC(Oc2cccc(Cl)c2)C1` came in with a melting point of 140 to 141 °C.
Molecule `O=[N+]([O-])c1cnccc1NCc1c(F)cccc1F` returned a melting point of 148 to 149 °C.
For `O=C(NCCO)c1cccc(-c2ccc3cnn(-c4ccc(Cl)cc4Cl)c3n2)c1`, the melting point fell in the range of 169 to 170 °C.
`CCC1(CC(=O)O)OCCc2c1[nH]c1c(OCC(F)(F)F)cccc21` (centres undefined): the melting point was in the range of 126 to 129 °C.
To `COC(=O)c1cc(C)c(C(OC(=O)C(Cc2ccccc2)NS(=O)(=O)c2ccc(C)cc2)c2cc(-n3ccnc3)ccc2C)c(C)c1` (centres undefined) belongs 111 to 112 °C; to `Cc1c(C(=O)NC2CCN(Cc3ccccc3)CC2)c2cc(F)ccc2n1Cc1ccccc1`, 194 to 195 °C; to `CCCCCCCCCCc1c(C)nc2ccccn2c1=O`, 66 to 67.5 °C.
With `N#Cc1cccc(NC(C(=O)O)c2ccccc2)c1` (centres undefined), the melting point was in the range of 159 to 162 °C.
`CCCC1=C(C(=O)OCC)C(c2sccc2C)c2c[nH]nc2N1` (centres undefined): the melting point turned out to be 125 °C.
To `O=C(c1cccs1)c1cnn2c(-c3cccc(NCc4ccc(Cl)cc4)c3)ccnc12` belongs 149 to 152 °C.
The molecule `CCOC(=O)Cc1ccc(NC(=O)C(CCc2ccccc2)NS(=O)(=O)c2ccc(Br)cc2)cc1` (racemic) yielded a melting point of 130 to 131 °C.
For the molecule `Nc1cccc(-c2ccc(CCN3CCN(C(=O)COc4ccccc4)CC3)cc2)n1`, the melting point was 127 to 130 °C.
Turning to `Fc1ccc(F)c(-c2coc3ccc(-c4nnc(S)o4)cc23)c1`, the melting point was in the range of 206 to 207 °C.
`N#Cc1cnc2cc(C=O)sc2c1Cl` came in with a melting point of 188 to 189 °C.
In turn, `NCCCCCCCCCCCCCCCCCCCC(=O)O` had a melting point of 172 to 174 °C.
Next, `CCOC(=O)c1cccc(CNC(=O)CCCCCNC(=O)OC(C)(C)C)c1O`: 120 to 121 °C; `O=c1nc(-c2ccc(Br)cc2)c2c(=O)nc(-c3ccc(Br)cc3)c1=2`: over 400 °C.
To `Cn1ncc(/C=C/C(=O)Nc2ccc(Cc3nnn[nH]3)cc2)c1-c1ccc(F)cc1` belongs 252 to 253 °C.
As for `COC(=O)C1Oc2ccc(Cl)cc2C(C)(c2ccccc2)O1` (centres undefined), the melting point was in the range of 114 to 115 °C.
Turning to `CCCc1cc2ccccn2c1C(C)=O`, the melting point fell in the range of 71 to 72 °C.
`COc1ccnc(CCc2nc3cc(-c4ccc(S(=O)(=O)N(C)C)c(F)c4)cnc3[nH]2)c1` displayed a melting point of 211 to 212 °C.
`COCCOc1cc(NS(=O)(=O)c2ccccn2)c2[nH]c(C(=O)O)cc2c1` came in with a melting point of 230 to 232 °C.
Take `COc1ccc(NC(=O)c2ccc(Cl)c(Cl)c2)cc1NS(=O)(=O)c1ccc(C)cc1`: the melting point lay in the range of 228 to 230 °C.
`C[C@](N)(Cc1ccccc1)C(=O)O` returned a melting point of 137 to 138 °C.
In turn, `CCNC(=O)Nc1c(Cl)cccc1[Si](C)(C)C` had a melting point of 161 to 163 °C.
Next, `CCOC(=O)/C(=C/c1ccc(OC)c2c1CC(C)(C)O2)c1ccncc1`: 98 to 100 °C.
Next, `O=C(Nc1cccc2cc(CO)cnc12)c1c(Cl)cccc1Cl`: 224 to 226 °C; `COc1ccc2c(C(=O)c3ccc(OC4CCCCC4N4CCCCCC4)cc3)c(-c3ccc(OCCN4CCCC4)cc3)sc2c1` (centres undefined): 43.5 to 51.5 °C.
In turn, `CCCCCCC(C)Oc1ccc(-c2ccc(C(C)=O)cc2)cc1F` (centres undefined) had a melting point of 67.6 to 68.5 °C.
Molecule `C[Si](C)(C)NS(=O)(=O)c1ccccc1` had a melting point of 62 to 63 °C.
For `O=C1c2cccc(NC3CCCC3)c2C(=O)c2cccc(NC3CCCC3)c21`, the melting point was in the range of 198 to 201 °C.
To `O=C1CCC2(CC1)CC(=O)c1ccccc1C2` belongs 158 to 160 °C; to `CC(C)(C)OC(=O)NC1Cc2ccccc2C(F)C1O` (centres undefined), 98 to 99 °C.
The molecule `COC(=O)C1CCC2C3CCC4CC(O)C(Br)CC4(C)C3CCC12C` (centres undefined) came in with a melting point of 195 to 198 °C.
As for `O=C(Nc1ccc(-n2nc(C3CC3)cc2C2CC2)cc1)c1c(F)cccc1F`, the melting point was in the range of 158 to 163 °C.
`CC(C)(C)c1ccc2c(c1)-c1c(c(C(=O)C(C#N)C(=O)Nc3ccccc3)nn1-c1ccccc1)CO2` (centres undefined) gave a melting point of 270 to 273 °C.
Turning to `CSc1c([N+](=O)[O-])c2cc(Cl)ccc2[nH]c1=O`, the melting point was determined as 213 °C.
In turn, `Cc1ccnn1-c1ccc(NC(=O)c2ccc(Cl)cc2)cc1` registered a melting point of 189 to 191 °C.
`Cc1ccc(N2C(=O)NC(=O)C23CCN(C(=O)c2ccccc2)CC3)cc1` displayed a melting point of 242 to 244 °C.
Consider `Cc1nc(Cl)c2c(c1O)COC2(C)C`, for which the melting point is 251 °C.
As to `CC(CCCc1ccc(F)cc1)c1cc(NC(N)=O)c2c(c1)OC(C)(C)c1ccncc1-2` (centres undefined), the melting point is 179 to 181 °C.
The molecule `Cc1cc(-c2nc(-c3c(F)cccc3Cl)nn2C)ccc1-c1ccc(OC(F)(F)F)cc1` had a melting point of 117 to 122 °C.
With `COc1ccc(C2=NN(C3CCN(CC(N)=O)CC3)C(=O)C(C)(C)C2)c2c1OC(C)(C)C2`, the melting point lay within 215 to 216 °C.
With `CCOc1nn(CCO)cc1C(=O)NCc1ccc(Cl)cc1Cl`, the melting point was 152 to 153 °C.
`NNC(=S)NCC1CC(c2ccc(Cl)cc2)=NO1` (centres undefined) had a melting point of 115 to 117 °C.
`O=C1N(c2cc(Cl)cc(Cl)c2)C(=O)C2(Cc3ccc(Br)cc3)CC(F)(F)CN12` (centres undefined) came in with a melting point of 160 °C.
`Cc1cccc(C(=O)C(Br)c2ccnc(F)c2)c1` (centres undefined): the melting point lay in the range of 66 to 67 °C.
Molecule `CCCOc1ccc(S(=O)(=O)Cl)cc1C(N)=O` registered a melting point of 122 to 129 °C.
Next, `COc1ccccc1Oc1c(Cl)nc(N)nc1Cl`: 190 °C; `C=CCC(Cc1ccc(Cl)c(Cl)c1)NC(=O)c1cc(C)cc(C)c1` (centres undefined): 155 to 157 °C; `COC(=O)c1cccc(-c2csc(N=C(N)N)n2)n1`: 240 °C.
With `O=C1NC(=O)C(Cc2ccc(OCCn3ccc4cccnc43)cc2)S1` (centres undefined), the melting point lay in the range of 200 to 202 °C.
Regarding `Cc1cc(SC(C)C)c(NC(=O)CCCCSc2nc3ccccc3o2)c(SC(C)C)n1`, the melting point fell in the range of 129 to 130 °C.
Consider `CCCCCCC(C)(C)c1cc(O)c2c(c1)OC(C)(C)[C@@H]1CC=C(NC(C)=O)C[C@@H]21` (relative stereo), for which the melting point is 186 to 188 °C.
Turning to `Cc1cc(C)c(/C=C2\C(=O)N(CO)c3ccccc32)[nH]1`, the melting point fell in the range of 196 to 200 °C.
The molecule `O=C(Nc1cc2ncc(CN3CCCC3)cc2cc1Cl)c1ccc(-c2ccc(F)cc2)cc1` gave a melting point of 188 °C.
As to `COCCOc1ccc(/C=C/C(=O)O)c(OCC2CCCCC2)c1`, the melting point was 112 °C.
Molecule `CCCCC1=NC2(CCCC2)C(=O)N1Cc1ccc(-c2ccccc2S(=O)(=O)Nc2noc(C)c2C)c(CCC)c1` displayed a melting point of 64 to 66 °C.
`CCCN1CCN(CCCOc2ccc3nc(C#N)nc(NCC(C)(C)C)c3c2)CC1`: the melting point fell in the range of 102 to 104 °C.
For the molecule `CC(=Nc1ccc(Cl)nn1)N(C)C`, the melting point turned out to be 73 °C.
